Source: the supplement of paper PMC10307832

How the values were obtained:
Assay in all cases: relative viability (nuclei count vs DMSO), 5 days (fraction); higher = more cells survive
Seliciclib + Tozasertib = compound: CC[C@H](CO)Nc1nc(NCc2ccccc2)c2ncn(C(C)C)c2n1 [Seliciclib] + Cc1cc(Nc2cc(N3CCN(C)CC3)nc(Sc3ccc(NC(=O)C4CC4)cc3)n2)n[nH]1 [Tozasertib] (partner 0.1 µM)
How it was run: (§1)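 Lung cancer cell lines in 1536-well plates got either a single drug or a fixed anchor-drug dose together with five library-drug doses (not always all listed) in √10 steps, by pin tool, on the day after seeding. Nuclei were counted after 5 days, and relative viability is the treated-to-vehicle ratio of nuclei counts. Values are medians of duplicate plates.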

Seliciclib + Crizotinib = compound: CC[C@H](CO)Nc1nc(NCc2ccccc2)c2ncn(C(C)C)c2n1 [Seliciclib] + C[C@@H](Oc1cc(-c2cnn(C3CCNCC3)c2)cnc1N)c1c(Cl)ccc(F)c1Cl [Crizotinib] (partner 1 µM)
How it was run: as §1

Seliciclib + Lapatinib = compound: CC[C@H](CO)Nc1nc(NCc2ccccc2)c2ncn(C(C)C)c2n1 [Seliciclib] + CS(=O)(=O)CCNCc1ccc(-c2ccc3ncnc(Nc4ccc(OCc5cccc(F)c5)c(Cl)c4)c3c2)o1 [Lapatinib] (partner 2 µM)
How it was run: as §1

Seliciclib + Decitabine = compound: CC[C@H](CO)Nc1nc(NCc2ccccc2)c2ncn(C(C)C)c2n1 [Seliciclib] + Nc1ncn([C@H]2C[C@H](O)[C@@H](CO)O2)c(=O)n1 [Decitabine] (partner 2 µM)
How it was run: as §1

| Cell Line | relative viability (Seliciclib + Tozasertib; first compound 0.253 µM) | relative viability (Seliciclib + Tozasertib; first compound 0.8 µM) | relative viability (Seliciclib + Tozasertib; first compound 2.53 µM) | relative viability (Seliciclib + Tozasertib; first compound 8 µM) | relative viability (Seliciclib + Crizotinib; first compound 0.08 µM) | relative viability (Seliciclib + Crizotinib; first compound 0.253 µM) | relative viability (Seliciclib + Crizotinib; first compound 0.8 µM) | relative viability (Seliciclib + Crizotinib; first compound 2.53 µM) | relative viability (Seliciclib + Crizotinib; first compound 8 µM) | relative viability (Seliciclib + Lapatinib; first compound 0.08 µM) | relative viability (Seliciclib + Lapatinib; first compound 0.253 µM) | relative viability (Seliciclib + Lapatinib; first compound 0.8 µM) | relative viability (Seliciclib + Lapatinib; first compound 2.53 µM) | relative viability (Seliciclib + Lapatinib; first compound 8 µM) | relative viability (Seliciclib + Decitabine; first compound 0.08 µM) | relative viability (Seliciclib + Decitabine; first compound 0.253 µM) | relative viability (Seliciclib + Decitabine; first compound 0.8 µM) | relative viability (Seliciclib + Decitabine; first compound 2.53 µM) | relative viability (Seliciclib + Decitabine; first compound 8 µM) | relative viability (Seliciclib + Tozasertib; first compound 0.08 µM) |
| --- | --- | --- | --- | --- | --- | --- | --- | --- | --- | --- | --- | --- | --- | --- | --- | --- | --- | --- | --- | --- |
| EKVX | 0.453 | 0.372 | 0.363 | 0.322 | 0.743 | 1.14 | 0.877 | 1.11 | 0.817 | 0.197 | 0.473 | 0.18 | 0.166 | 0.216 | 0.299 | 0.224 | 0.366 | 0.184 | 0.377 | – |
| EMC-BAC-2 | 0.242 | 0.318 | 0.274 | 0.257 | 0.735 | 0.744 | 0.824 | 0.728 | 0.534 | 0.891 | 0.847 | 0.953 | 0.666 | 0.781 | 0.918 | 1.01 | 1 | 0.753 | 0.856 | 0.257 |
| EPLC-272H | 0.231 | 0.297 | 0.181 | 0.153 | 0.88 | 0.729 | 0.746 | 0.903 | 0.636 | 0.814 | 0.861 | 0.805 | 0.913 | 0.847 | 0.373 | 0.432 | 0.336 | 0.395 | 0.342 | 0.247 |
| H3255 | 0.645 | 0.585 | 0.507 | 0.604 | 0.787 | 0.892 | 1.01 | 0.965 | 0.727 | 0.265 | 0.273 | 0.256 | 0.174 | 0.242 | 0.594 | 0.61 | 0.684 | 0.571 | 0.479 | 0.588 |
| HARA | 0.0958 | 0.111 | 0.782 | 0.0956 | 1.06 | 1.16 | 1.06 | 1.21 | 0.638 | 0.798 | 0.614 | 0.781 | 0.374 | 0.701 | 0.456 | 0.655 | 0.56 | 0.474 | 0.6 | 0.0937 |
| HCC-15 | 0.502 | 0.372 | 0.443 | 0.331 | 0.798 | 0.856 | 0.806 | 0.869 | 0.599 | 0.865 | 0.963 | 0.758 | 0.792 | 0.652 | 0.685 | 0.814 | 0.629 | 0.457 | 0.527 | 0.403 |
| HCC-44 | 1.19 | 0.969 | 0.861 | 0.791 | 0.709 | 0.842 | 0.778 | 0.821 | 0.698 | 0.972 | 1.08 | 0.981 | 0.933 | 0.925 | 0.946 | 0.996 | 0.99 | 0.927 | 0.906 | 0.858 |
| HCC-78 | 0.405 | 0.411 | 0.39 | 0.381 | 0.364 | 0.333 | 0.327 | 0.262 | 0.274 | 0.931 | 1.39 | 0.881 | 0.559 | 0.479 | 0.706 | 0.659 | 0.757 | 0.641 | 0.538 | 0.367 |
